Data on 6 molecules can be found in US11446304B2, “CDC-7-inhibitor compounds and use thereof for the treatment of neurological conditions” (CONSEJO SUPERIOR DE INVESTIGACIONES CIENTIFICAS (CSIC), priority 2017, dated 2022).

In data set [1] the target is human recombinant CDC7/DBF4 (Homo sapiens, UniProt O00311). Nature of the data set: CDC7 inhibition measurement (LanthaScreen Eu kinase binding, FRET). The following applies: CDC7/DBF4 0.5 nM, 60 min at room temperature; read-out: CDC7 Lantha ™ CI50. The text has this: The LanthaScreen Eu kinases inhibition assay uses an Alexa marker Fluor™ that binds to a kinase and is detected by the addition of an Eu-marked antibody. The binding of the marker and the antibody to the kinase results in a high degree of FRET, while the displacement of the marker by an inhibitor results in a loss of FRET. Unlike many other kinase activity tests, this is a simple mix and read test, with no developmental stages. This test method has been developed by Life Technologies and identifies competitive ATP kinase inhibitors, making them suitable for the detection of any compound that binds to the ATP site.
The compounds are evaluated at 1% DMSO (final) in the well. A mixture of human recombinant CDC7/DBF4 (0.5 nM), Eu-antiGST antibody (2 nM) and AlexaFluor marker (1 nM) has been used in a buffer of 50 mM HEPES pH 7.5, 0.01% BRIJ-35, 10 mM MgCl2, 1 mM EGTA in white plates of […], low volume, coded (Greiner cat. #784207), 160 nL (100×100% DMSO compound), 3.84 μL (buffer with CDC7/DBF4), 8.0 μL (antibody), 4.0 μL (marker) are added. Agitate 30 s and incubate at room temperature for 60 min. Then measure the fluorescence in the plate reader and analyze the data (Table 1).

For data set [2], the system named is TDP-43 phosphorylation (S409/410). Nature of the data set: Effect on phosphorylation of TDP-43 (western blot). Type of data set: cell-based, human. The following applies: SH-SY5Y cells, 24 h incubation with ethacrynic acid, FIG. 3. On the procedure:
FIG. 3. Sample of the effect of CDC7 inhibitors (compounds 1, 8, 9 and 13) on TDP-43 phosphorylation. Quantification and representation of phosphorylated TDP-43 levels by western blot.
To evaluate the levels of TDP-43 phosphorylated in the presence of CDC7 inhibitors (compounds 1 and 8), the cells after 24 h of incubation with ethacrylic acid were washed with PBS and then cold lysed with lysis buffer (50 mM Tris pH 7.4, 150 mM NaCl, 50 mM NaF, 1% Nonidet P-40 and Protease and phosphatase inhibitors (Roche)). The collected cell extracts were centrifuged for 10 minutes at 4,000 rpm. Protein quantification was performed with the Pierce BCA protein assay kit (Thermo Scientific). 10 μg of protein were loaded into the polyacrylamide gel with SDS and subsequently transferred to a polyvinylidene fluoride (PVDF) membrane (Millipore).
A general note: A western blot detects proteins with antibodies after separation by electrophoresis.

The target in the next data set is T1, human recombinant CDC7 (Homo sapiens, UniProt O00311).
T1 construct: purchased Promega V5089
As to the kind of experiment: CDC7 inhibition measurement (ADP-Glo technology). Type of data set: biochemical. The following applies: ATP 10 μM, 60 min at room temperature; read-out: CDC7 ADP-Glo ™ CI50. On the procedure: The method used is a non-radioactive enzyme inhibition assay using human recombinant CDC7. It is based on luminometric quantification of inhibition using the ADP-Glo™ Kinase Kit. In this test the luminescent signal correlates positively with the amount of adenosine diphosphate (ADP) and the activity of the kinase. […]
CDC7 enzyme inhibition studies were conducted using the promega kit: ADP-Glo™ Kinase Assay+CDC7/DBF4 Kinase Enzyme System (Catalogue No. V5089). ATP and other reagents were purchased in Sigma-Aldrich (St. Louis, Mo.). The trials were performed in a buffer solution using 96-well plates. The compound to be tested (5 μL, 40 μM dissolved in DMSO 4%) was added to each well followed by the enzyme (5 μL, 25 ng/well), ATP (5 μL, final concentration in well 10 μM) and PDKtidE (5 μL, 4 μg/well). It was then incubated for 60 minutes at room temperature and the reagent ADP-Glo™ (20 μL) was added and incubated again for 40 min at room temperature. After incubation, the kinase detection agent (40 μL) was added and incubated for 30 min at room temperature. Finally, the luminescence (integration time of 0.5-1 sec) was measured using a POLARstar Optima multimode reader polarimeter. Inhibition activities were calculated as a function of maximum activity, measured in the absence of inhibitor.
(ADP-Glo first removes unused ATP, then detects ADP through luciferase.)

The test system of data set [3] is human SH-SY5Y neuroblastoma cells. Nature of the data set: Neuroprotective effect against ethacrynic acid, cell viability by MTT. Type of data set: cell-based. The following applies: ethacrynic acid 20 μM for 12 hours, inhibitors at 10 μM, FIG. 2. As for the experimental part: FIG. 2. […] The data represent the mean of four different±SEM experiments (*p<0.05).
The human neuroblastoma cell line SH-SY5Y was cultured at 37° C. with 5% CO2 in DMEN medium (Dulbecco's Modified Eagle Medium) enriched with L-glutamine (2 mM), 1% non-essential amino acids, 1% Penicillin/Estreptomycin and 10% fetal bobin serum. In the semiconfluence state, the cells were treated with CDC7 inhibitors (compounds 1 and 8) at different concentrations for 1.30 hours post-addition of the causative agent of TPD-43 phosphorylation; ethacrynic acid ([…]) (Sigma). […] J Immunol Methods. 1987; 89:271-7) and levels of western blot phosphorylated TDP-43 (FIG. 2).

Data set [4] is described as follows: PAMPA blood-brain barrier permeation (porcine brain lipid). Type of data set: in vitro ADME. The following applies: for Papp at 2.5 h: PAMPA-BHE, PBS pH 7.4/EtOH 70:30, 2 h 30 min at 25° C., mean ± SD, read-out: Pe; for PAMPA prediction of central nervous system (CNS) penetration: from Pe in PAMPA-BHE. The text has this:
An essential requirement for drugs for the treatment of neurodegenerative diseases is the ability to cross the blood-brain barrier (BBB), as otherwise they could not act on the target of interest. Therefore, for compounds that are not permeable or located in the area of uncertainty, it may be necessary to properly convey a pharmaceutical formulation through methods known to an expert in the field, such as encapsulation. This capability can be predicted in vitro using a method known by the acronym PAMPA (Parallel Artificial Membrane Permeability Assay) described by Di et al (Di, L.; Kerns, E. H.; Fan, K.; McConnell, O. J.; Carter, G. T. Eur. J. Med. Chem. 2003, 38 (3), 223-232) and which has subsequently been fine-tuned in our research group. This method allows predicting the effective permeability through artificial membranes by means of a passive diffusion process.
First of all, it is necessary to validate the method, for which 10 commercial compounds are used whose penetration capacity in the central nervous system (CNS) is known and which are to be specified below, obtaining in this case a good linear correlation between the experimental permeability values (Pe) and those described (FIG. 1). This correlation line obtained following the pattern described in the bibliography allows establishing the limits to predict whether or not a compound can cross the blood-brain barrier. Thus, a compound is considered BBB permeable (SNC+) if it has a permeability>4.48×10^−6 cm-s^−1.
For the procedure, between 3-5 mg of caffeine, desipramine, enoxacin, hydrocortisone, ofloxacin, piroxicam and testosterone, 12 mg of promazine and 25 mg of atenolol and verapamil were taken and dissolved in EtOH (1000 μL). 100 μL of these solutions were taken and EtOH (1400 μL) and phosphate buffer (PBS) pH=7.4 (3500 μL) were added in order to achieve a final EtOH concentration of 30% v/v in solution. Finally, the dissolutions were filtered.
On the other hand, a PBS/EtOH solution (70:30) was added to each well of the acceptance plate (180 μL). The donor plate was impregnated with a porcine brain lipid solution (4 μL) dissolved in dodecane (20 mg mL^−1). After 5 min, dissolution of each compound was added to this plate (180 μL).
Of the compounds 1 to 10 evaluated, 1-2 mg were taken and dissolved in EtOH (1500 μL) and phosphate buffer (PBS) pH=7.4 (3500 μL), filtered and added to the donor plate. With these solutions, the wavelengths at which the compounds absorb are determined and the initial absorbance levels at these wavelengths are measured using a UV absorbance reader. Each sample was analyzed from two to five wavelengths, in three wells and in two independent experiments.
The donor plate was then deposited on the acceptor forming a kind of “sandwich” and incubated for 2 hours and 30 minutes at 25° C. In this way, the compounds will pass from the donor plate to the acceptor plate through the porcine brain lipid by passive diffusion. After that time, the donor plate is carefully removed and the concentration and final absorbance of both commercial and synthesized compounds is determined. The results obtained are expressed as the mean of the measurements [standard deviation (SD)] of the different experiments carried out and are shown in table 2.

human recombinant CDC7/DBF4, sequence (O00311 whole entry): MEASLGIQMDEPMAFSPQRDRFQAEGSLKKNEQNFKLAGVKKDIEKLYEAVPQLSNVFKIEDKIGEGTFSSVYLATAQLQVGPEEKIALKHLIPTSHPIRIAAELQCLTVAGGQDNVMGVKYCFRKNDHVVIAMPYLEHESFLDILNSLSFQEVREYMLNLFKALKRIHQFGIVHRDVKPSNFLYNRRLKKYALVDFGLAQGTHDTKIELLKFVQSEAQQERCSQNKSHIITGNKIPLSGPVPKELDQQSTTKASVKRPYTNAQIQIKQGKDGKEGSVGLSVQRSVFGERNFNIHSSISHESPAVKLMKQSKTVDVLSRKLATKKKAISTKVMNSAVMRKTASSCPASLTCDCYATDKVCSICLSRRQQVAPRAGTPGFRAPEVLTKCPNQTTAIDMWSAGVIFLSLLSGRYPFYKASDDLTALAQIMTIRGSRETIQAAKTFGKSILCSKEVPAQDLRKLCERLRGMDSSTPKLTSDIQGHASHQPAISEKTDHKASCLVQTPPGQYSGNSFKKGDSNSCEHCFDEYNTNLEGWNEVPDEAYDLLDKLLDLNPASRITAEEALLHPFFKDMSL
human recombinant CDC7/DBF4, sequence (Q9UBU7 whole entry partner): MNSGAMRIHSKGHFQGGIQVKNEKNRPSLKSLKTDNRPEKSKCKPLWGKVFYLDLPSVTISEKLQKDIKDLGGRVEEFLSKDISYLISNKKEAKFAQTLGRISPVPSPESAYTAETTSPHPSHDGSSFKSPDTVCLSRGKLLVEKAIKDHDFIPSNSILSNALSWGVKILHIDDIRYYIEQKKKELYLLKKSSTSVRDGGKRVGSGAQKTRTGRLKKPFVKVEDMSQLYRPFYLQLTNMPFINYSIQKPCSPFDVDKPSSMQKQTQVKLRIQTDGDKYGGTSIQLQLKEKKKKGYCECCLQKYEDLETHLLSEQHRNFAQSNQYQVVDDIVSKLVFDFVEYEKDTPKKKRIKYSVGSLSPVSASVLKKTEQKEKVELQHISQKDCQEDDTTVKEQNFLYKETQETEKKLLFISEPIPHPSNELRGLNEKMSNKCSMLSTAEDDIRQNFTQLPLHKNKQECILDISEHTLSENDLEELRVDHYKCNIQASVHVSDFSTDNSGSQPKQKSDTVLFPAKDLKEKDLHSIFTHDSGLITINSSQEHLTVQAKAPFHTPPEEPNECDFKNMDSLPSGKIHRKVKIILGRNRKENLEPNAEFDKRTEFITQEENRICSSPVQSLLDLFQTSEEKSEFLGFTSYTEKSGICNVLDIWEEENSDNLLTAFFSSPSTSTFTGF
T1 sequence (O00311 whole entry): as the sequence (O00311 whole entry) above
T1 sequence (Q9UBU7 whole entry partner): as the sequence (Q9UBU7 whole entry partner) above

Take `c1ccc(CSc2ncnc3[nH]cnc23)cc1` [Compound 1, 6-(benzylthio)-9H-purine]: in data set [1], the IC50 was 0.125 µM. Further, the “phosphorylated TDP-43 levels” value in data set [2] is on record as “reduce phosphorylation of TDP-43”. Further, the IC50 on human recombinant CDC7 came out at 6.74 ± 0.35 µM. Moreover, the “neuroprotective effect (cell viability)” value in data set [3] is listed as “neuroprotective effect”. For the same molecule, in data set [4], the Papp at 2.5 h is 6.2 ± 1.1 ×10⁻⁶ cm/s and the “PAMPA prediction of central nervous system (CNS) penetration” value (shortened to “PAMPA prediction”) is reported as “SNC+ (a compound is considered BBB permeable (SNC+) if it has a permeability>4.48×10^−6 cm-s^−1)”.
For orientation: melting point means the temperature of the solid-liquid transition. In the case of `Clc1ccc(CSc2ncnc3[nH]cnc23)cc1` [Compound 5, 6-((4-chlorobenzyl)thio)-9H-purine], the melting point was 198 to 200 °C. For the same molecule, the IC50 in data set [1] turned out to be 0.184 µM. Also, at human recombinant CDC7, the IC50 was 8.46 ± 1.05 µM. Also, in data set [4], the Papp at 2.5 h was determined as 12.2 ± 1.2 ×10⁻⁶ cm/s and the “PAMPA prediction” value was “SNC+ (a compound is considered BBB permeable (SNC+) if it has a permeability>4.48×10^−6 cm-s^−1)”.
The like results for `Clc1cccc(COc2ncnc3[nH]cnc23)c1` [Compound 6, 6-((3-chlorobenzyl)oxy)-9H-purine] were, in that order, 197 to 199 °C, 0.194 µM, 8.98 ± 0.21 µM, 7.2 ± 0.6 ×10⁻⁶ cm/s and “SNC+ (a compound is considered BBB permeable (SNC+) if it has a permeability>4.48×10^−6 cm-s^−1)”.
`Clc1cccc(CSc2ncnc3[nH]cnc23)c1` [Compound 8, 6-((3-Chlorobenzyl)thio)-9H-purine] registered a melting point of 167 to 169 °C. In addition, the IC50 in data set [1] was determined as 0.172 µM. Moreover, the “phosphorylated TDP-43 levels” value in data set [2] was “reduce phosphorylation of TDP-43”. Moreover, the IC50 at human recombinant CDC7 came to 5.21 ± 0.38 µM. The “neuroprotective effect (cell viability)” value in data set [3] is given as “neuroprotective effect”. In addition, in data set [4], the Papp at 2.5 h was determined as 15.1 ± 0.6 ×10⁻⁶ cm/s and the “PAMPA prediction” value is “SNC+ (a compound is considered BBB permeable (SNC+) if it has a permeability>4.48×10^−6 cm-s^−1)”.
In turn, `Ic1cccc(CSc2ncnc3[nH]cnc23)c1` [Compound 9, 6-((3-Iodobenzyl)thio)-9H-purine] displayed a melting point of 185 to 187 °C. In addition, in data set [1], the IC50 was 0.086 µM. In addition, the IC50 at human recombinant CDC7 came to 3.34 ± 0.27 µM. Also, in data set [3], the “neuroprotective effect (cell viability)” value is listed as “neuroprotective effect”. In data set [4], the Papp at 2.5 h stood at 13.8 ± 2.5 ×10⁻⁶ cm/s and the “PAMPA prediction” value is reported as “SNC+ (a compound is considered BBB permeable (SNC+) if it has a permeability>4.48×10^−6 cm-s^−1)”.
The molecule `Brc1ccccc1CSc1ncnc2[nH]cnc12` [Compound 13, 6-((2-bromobenzyl)thio)-9H-purine] returned a melting point of 209 to 211 °C. Also, the IC50 in data set [1] is 0.275 µM. Also, the IC50 on human recombinant CDC7 is 6.24 ± 0.99 µM. Moreover, the “neuroprotective effect (cell viability)” value in data set [3] is given as “neuroprotective effect”. Besides, in data set [4], the Papp at 2.5 h was 13.1 ± 0.1 ×10⁻⁶ cm/s and the “PAMPA prediction” value is “SNC+ (a compound is considered BBB permeable (SNC+) if it has a permeability>4.48×10^−6 cm-s^−1)”.
